The values that follow come from US20260232678A1, “Nasal Spray for Phosphodiesterase Inhibitors” (Cyrano Therapeutics, Inc., priority 2022, published 2026).

Series [1] concerns phantosmia and phantogeusia. Kind of series: Treatment of phantosmia in a subject. In kind it is in vivo. The note with it: thioridazine composition in nasal spray device, 3× daily in each naris.
Source text: A subject is admitted to a clinic for phantosmia and phantogeusia. The subject is prescribed a thioridazine composition in a nasal spray device described herein. The subject administers the nasal spray in an effective dose 3× daily in each naris. The nasal spray is characterized by a spray containing a D50 of about 15 μm to about 24 μm, a D90 of from about 30 μm to about 50 μm and where less than about 3% of the droplets in the plume of a spray have a size of less than about 10 μm.
Series [2] deals with chemosensory dysfunction associated with Parkinson's disease. Kind of series: Treatment of Parkinson's disease chemosensory dysfunction. The conditions noted are these: about 0.4 ml per day of 3.1 mg/ml theophylline, nasal spray twice daily in each naris, 7 days. The format is in vivo, human. On the procedure: An adult human subject was treated for chemosensory dysfunction associated with Parkinson's disease. […] The subject was administered about 0.4 ml per day of a liquid composition comprising theophylline at a concentration of 3.1 mg/ml in a nasal spray device described herein. The subject administered the nasal spray twice daily in each naris.

For series [3] the following is noted: cited from earlier work.

For the molecule `CSc1ccc2c(c1)N(CCC1CCCCN1C)c1ccccc1S2` (stereo not shown) [thioridazine], the “symptoms of the phantosmia and phantogeusia” value in series [1] is recorded as “reduced symptoms”.
Turning to `Cn1c(=O)c2[nH]cnc2n(C)c1=O` [Theophylline, theophylline], in series [2], the “ability to taste and smell” value was “regained their ability to taste and smell”. For the same molecule, the solubility in ethanol in series [3] (ethanol) was 14 to 15 mg/mL. For the same molecule, the solubility in water in series [3] (water) was 7 to 8 mg/mL.
